Measurements taken from patent US12030880B2, “Iminosulfanone compound as bromodomain protein inhibitor and pharmaceutical composition and medical use thereof” (CHIA TAI TIANQING PHARMACEUTICAL GROUP CO., LTD., priority 2018, dated 2024).

Assays:
Kasumi-1 cells = test: Cell proliferation activity assay in Kasumi-1; format: cell-based; conditions: Homo sapiens, inhibiting cell proliferation, 72 hours, Cell-Titer Blue
Method: (§1) Human acute myeloblastic leukemia cell line Kasumi-1 cells were cultured in PRIM1640 medium plus 20% fetal bovine serum (FBS, purchased from Biological Industries, BI) and 1% penicillin/streptomycin double antibody (P/S, purchased from Life Technology) at 37° C. with 5% CO2. On the day before the compound test, Kasumi-1 cells were spread in a 96-well plate (purchased from Corning) at a concentration of 5000 cells/195 μL/well. After 24 hours, the compound was serially diluted 4-fold with 100% DMSO starting from 10 mM (9 concentrations in total), and then 2 μL of the compound at each concentration was added to 48 μL of PRIM1640 medium for dilution. 5 μL of the diluted compound at each concentration was added to the wells spread with the cell suspension, and the compound and cells were co-incubated in a cell incubator for 72 hours (3 days). Then the mixture was added with 35 μL of Cell-Titer Blue reagent (purchased from Promega) and incubated for another 4 hours. The fluorescence values (excited at 560 nm, detected at 590 nm) were then read on Flexstation III, and the data were calculated using GraphPad Prism software to give IC50 value of the compound in inhibiting cell proliferation.

BRD4 (BD1) = BRD4 (BD1) (Homo sapiens (Human), UniProt O60885); test: In vitro BRD4 (BD1) enzymatic activity assay (HTRF); format: binding; conditions: GST-BRD4 (BD1, 44-168 aa)
Method: In the present application, IC50 values of the compounds in inhibiting BRD4 (BD1) enzyme binding reaction were determined by homogeneous time resolved fluorescence (HTRF). A compounds was serially diluted 5-fold with 100% DMSO starting from 0.2 mM (7 concentrations in total), and then 2 μL of the compound at each concentration was added to 48 μL of a reaction buffer (20 mM HEPES pH 7.5, 150 mM NaCl, 5 mM DTT, 0.005% Tween 20, and 100 μg/mL BSA) for dilution, and mixed well. 2.5 μL of the resulting mixture was added to a 384-well plate (OptiPlate-384, purchased from PerkinElmer), then 5 μL of GST-BRD4 (BD1, 44-168 aa) (final concentration: 1 nM) was added, and the resulting mixture was centrifuged, and fully mixed. 2.5 μL of a short peptide Biotin-AHA-SGRGK(Ac)GGK(Ac)GLGK(Ac)GGAK(Ac) RHRKV (final concentration: 100 nM) was then added to initiate the reaction (total reaction volume: 10 μL). The 384-well plate was placed in an incubator at 23° C. to react for 1 hour, and then 5 μL of Eu3+ cryptate-labled anti-GST antibody (purchased from Cisbio) and 5 μL of Streptavidin-XL-665 (purchased from Cisbio) were added to terminate the reaction. After being incubated in the incubator for another 1 hour, the fluorescence values (excited at 320 nm, emitted light at 665 nm and 620 nm being detected, and the ratio of the two being the enzyme binding signal) were read on Envision (purchased from PerkinElmer). The binding strength of each compound to BRD4 (BD1) protein was determined respectively at 7 concentrations, and the data were calculated using GraphPad Prism software to obtain the IC50 value of the compound.

[1] = Animal pharmacokinetic study on compounds; format: in vivo; conditions: rat, po; male rats, single intragastric administration, 5 mg/kg, plasma
Method: Three healthy adult male rats that obtained from Beijing Vital River Laboratory Animal Technology Co., Ltd were used for the animal pharmacokinetic experiment. A compound was suspended in 2% absolute ethanol, 5% tween 80, 20% polyethylene glycol 400, and 73% (5% hydroxypropylmethyl cellulose in water) (V/V/V/V) at a concentration of 1 mg/mL. The administration volume was 5 mL/kg, and animals were treated with a single intragastric administration at a dose of 5 mg/kg. Animals were fasted overnight prior to the experiment, and the fasting time was from 10 hours before administration to 4 hours after administration. Blood was sampled at 0.25, 0.5, 1, 2, 4, 6, 8 and 24 hours after administration. Animals were lightly anesthetized with isoflurane, and approximately 0.4 mL of whole blood was collected from the orbital venous plexus using a glass blood collection tube, and placed in a heparin anticoagulation tube. The sample was centrifuged at 4200 rpm for 5 minutes at 4° C., and then the plasma was transferred to a centrifuge tube and stored at −80° C. until analyzed. In the plasma sample analysis, test compounds and internal standards (warfarin or propranolol) were extracted from rat plasma by acetonitrile protein precipitation, and the extracts were analyzed by LC/MS/MS. The measured plasma concentration-time data of the individual animals were analyzed using a non-compartmental model of WinNonlin (version no. 5.2.1; Pharsight) software to give pharmacokinetic parameters as shown in Table 3 below: the maximum (peak) plasma drug concentration Cmax; the time to peak Tmax; the half-life T1/2 and the area under the plasma concentration-time curve extrapolated to infinity AUC0-inf.

MV4-11 cells = test: Cell proliferation activity assay in MV4-11; format: cell-based; conditions: Homo sapiens, inhibiting cell proliferation, 72 hours, Cell-Titer Blue
Method: as §1, with “lymphoblastic” for “myeloblastic”, “MV4-11” for “Kasumi-1”, “10%” for “20%”, “8000” for “5000”

BRD4 (BD2) = BRD4 (BD2) (Homo sapiens (Human), UniProt O60885); test: In vitro BRD4 (BD2) enzymatic activity assay (HTRF); format: binding; conditions: GST-BRD4 (BD2, 349-460 aa)
Method: In the present application, IC50 values of the compounds in inhibiting BRD4 (BD2) enzyme binding reaction were determined by homogeneous time resolved fluorescence (HTRF). A compound was serially diluted 5-fold with 100% DMSO starting from 1 mM (7 concentrations in total), and then 2 μL of the compound at each concentration was added to 18 μL of a reaction buffer (20 mM HEPES pH 7.5, 150 mM NaCl, 5 mM DTT, 0.005% Tween 20, and 100 μg/mL BSA) for dilution. After being mixed well, 2 μL of the compound at each concentration was added to 48 μL of the above reaction buffer for dilution, and mixed well (final concentration of the compound in DMSO: 0.1%). 2.5 μL of the resulting mixture was added to a 384-well plate (OptiPlate-384, purchased from PerkinElmer), then 5 μL of GST-BRD4 (BD2, 349-460 aa) (final concentration: 2 nM) was added, and the resulting mixture was centrifuged, and fully mixed. 2.5 μL of a peptide Biotin-AHA-SGRGK(Ac)GGK(Ac)GLGK(Ac)GGAK(Ac) RHRKV (final concentration: 200 nM) was then added to initiate the reaction (total reaction volume: 10 μL). The 384-well plate was placed in an incubator at 23° C. to react for 1 hour, and then 5 μL of Eu3+ cryptate-labled anti-GST antibody (purchased from Cisbio) and 5 μL of Streptavidin-XL-665 (purchased from Cisbio) were added to terminate the reaction. After being incubated in the incubator for another 1 hour, the fluorescence values (excited at 320 nm, emitted light at 665 nm and 620 nm being detected, and the ratio of the two being the enzyme binding signal) were read on Envision (purchased from PerkinElmer). The binding strength of each compound to BRD4 (BD2) protein was determined respectively at 7 concentrations, and the data were calculated using GraphPad Prism software to obtain the IC50 value of the compound.

SMILES	IC50 (BRD4 (BD1)) [nM]	AUC(0-inf) [1] [ng·h/mL]	Cmax [1] [ng/mL]	Tmax [1] [h]	half-life [1] [h]	IC50 (MV4-11 cells) [nM]	IC50 (BRD4 (BD2)) [nM]	IC50 (Kasumi-1 cells) [nM]
Cn1cc(-c2cc(N=S(C)(C)=O)cnc2Oc2ccc(F)cc2F)c2cc[nH]c2c1=O [Example 4, 4-{2-(2,4-difluorophenoxy)-5-{[dimethyl(oxo)-λ^6-sulfanylidene]amino}-pyridin-3-yl}-6-methyl-1,6-dihydro-7H-pyrrolo[2,3-c]pyridin-7-one]	0.93	2300	459	0.83	2.94	8.3	0.35	4.4
Cn1cc(-c2nc(N=S(C)(C)=O)ccc2Oc2ccc(F)cc2F)c2cc[nH]c2c1=O [Example 18, 4-{3-(2,4-difluorophenoxy)-6-{[dimethyl(oxo)-λ^6-sulfanylidene]amino}-pyridin-2-yl}-6-methyl-1,6-dihydro-7H-pyrrolo[2,3-c]pyridin-7-one]	–	–	–	–	5.25	3.14	–	1.56
Cn1cc(-c2cc(N=S(C)(C)=O)ncc2Oc2ccc(F)cc2F)c2cc[nH]c2c1=O [Example 19, 4-{5-(2,4-difluorophenoxy)-2-{[dimethyl(oxo)-λ^6-sulfanylidene]amino}-pyridin-4-yl}-6-methyl-1,6-dihydro-7H-pyrrolo[2,3-c]pyridin-7-one]	7.3	–	–	–	–	54	0.61	7.37
CCNC(=O)c1cc2c(-c3cc(N=S(C)(C)=O)cnc3Oc3c(C)cccc3Cl)cn(C)c(=O)c2[nH]1 [Example 21, 4-{2-(2-chloro-6-methylphenoxy)-5-{[dimethyl(oxo)-λ^6-sulfanylidene]amino}-pyridin-3-yl}-N-ethyl-6-methyl-7-oxo-6,7-dihydro-1H-pyrrolo[2,3-c]pyridine-2-carboxamide]	10.7	–	–	–	–	138	0.13	18

More lines, main results first:

IC50 (BRD4 (BD1)) [nM]	AUC(0-inf) [1] [ng·h/mL]	Cmax [1] [ng/mL]	Tmax [1] [h]	half-life [1] [h]	IC50 (MV4-11 cells) [nM]	IC50 (BRD4 (BD2)) [nM]	SMILES	IC50 (Kasumi-1 cells) [nM]
4.8	2690	610	1	2.9	9.8	0.66	Cn1cc(-c2cc(N=S(C)(C)=O)ccc2Oc2ccc(F)cc2F)c2cc[nH]c2c1=O [Example 5, 4-{2-(2,4-difluorophenoxy)-5-{[dimethyl(oxo)-λ^6-sulfanylidene]amino}phenyl}-6-methyl-1,6-dihydro-7H-pyrrolo[2,3-c]pyridin-7-one]	15.4
86.4	–	–	–	–	120	0.4	CCNC(=O)c1cc2c(-c3cc(N=S(C)(C)=O)cnc3Oc3c(C)cc(F)cc3C)cn(C)c(=O)c2[nH]1 [Example 16, 4-{5-{[dimethyl(oxo)-λ^6-sulfanylidene]amino}-2-(4-fluoro-2,6-dimethylphenoxy)pyridin-3-yl}-N-ethyl-6-methyl-7-oxo-6,7-dihydro-1H-pyrrolo[2,3-c]pyridine-2-carboxamide]	20.7
12.9	–	–	–	–	75	0.27	Cc1cccc(Cl)c1Oc1ncc(N=S(C)(C)=O)cc1-c1cn(C)c(=O)c2[nH]ccc12 [Example 20, 4-{2-(2-chloro-6-methylphenoxy)-5-{[dimethyl(oxo)-λ^6-sulfanylidene]amino}-pyridin-3-yl}-6-methyl-1,6-dihydro-7H-pyrrolo[2,3-c]pyridin-7-one]	9.25
